Results from US20210260090A1, “USE OF SGLT-2 INHIBITORS FOR THE PREVENTION AND/OR TREAT-MENT OF CARDIAC DISEASES IN FELINES” (Boehringer Ingelheim Vetmedica GmbH, priority 2020, published 2021).

Experiments:
[1] = tested on: cat patients with every possible phenotype of cardiomyopathy (HCM, RCM, UCM, DCM and ARVC); test: Clinical field study in client-owned cat patients with cardiomyopathy (Example 1); assay type: in vivo; conditions: 1 mg/kg bodyweight orally once daily
Procedure: Client-owned cat patients (older than 1 year) with every possible phenotype of cardiomyopathy (HCM, RCM, UCM, DCM and ARVC) with or without clinical symptoms (e.g. congestive heart failure) are treated orally and once daily with a velagliflozin dosage of 1 mg/kg bodyweight.
During the study period the body weight, body condition score, blood pressure and the cardiovascular system (including heart rates, rhythm, presence of gallop sound or murmur and intensity) are examined on a regular basis during the visits at the site by the investigator. Additionally, thoracic radiographs (in the right lateral and dorso ventral view), echocardiography (including LV septal & free wall thickness, LVIDD, LVIDS (FS %), LA/Ao, LAD, ejection fraction) and electrocardiography are performed. In order to obtain an overview as complete as possible regular blood tests include a complete hematology (white blood cells (WBC), WBC differential, red blood cells, hemoglobin, hematocrit, Heinz bodies, platelet count), a biochemistry panel (total protein, Albumin, Globulin, Alkaline phosphatase (ALP), Alanine transaminase (ALT), Aspartate transaminase (AST), Total bilirubin, Creatinine, Blood urea nitrogen or urea (BUN), Calcium, Sodium, Potassium, Chloride, Phosphorus, Glucose, Cholesterol, Triglycerides, Fructosamine), the measurement of total T4, ketone bodies and cardiac biomarkers (Plasma NT-pro BNP, Cardiac troponin I, ST2).
Variables of interest are the number of events defined as cardiac death, cardiac related euthanasia and (re-) occurrence of congestive heart failure and the time to event (survival time of the cat patients).

[2] = tested on: cats with hypertrophic cardiomyopathy (HCM) and recent heart failure; test: Exploratory clinical field study of velagliflozin in cats (Example 2, case 101); assay type: in vivo; conditions: for NT-proBNP: cardiac biomarker, screening (D −7) 177; for NT-proBNP / Grade of murmur / Resting respiratory rate / Heart rate / Point of maximum intensity / Presence of arrythmia / Presence of gallop sound / Timing of murmur / Presence of murmur / LA/Ao (left atrium to aorta ratio) / LAD max (mm) (Left atrium measured as right parasternal long-axis): cat 101, 1 mg/kg orally once per day; for BPM (mmHG): cat 101, 1 mg/kg bodyweight orally once per day, screening (D −7) 128; for Grade of murmur: screening (D −7) 4; for Resting respiratory rate: screening (D −7) 28; for Heart rate: screening (D −7) 140; for Point of maximum intensity: screening (D −7) left apical; for Presence of arrythmia / Presence of gallop sound: screening (D −7) no; for Timing of murmur: screening (D −7) systolic; for Presence of murmur: screening (D −7) yes; for LA/Ao (left atrium to aorta ratio) / LAD max (mm) (Left atrium measured as right parasternal long-axis): echocardiography; for LA/Ao (left atrium to aorta ratio): screening (D −7) 1.63; for LAD max (mm) (Left atrium measured as right parasternal long-axis): screening (D −7) 16.3
Description: In an exploratory clinical field study (prospective, baseline controlled, open label and multi-site) under real world conditions, four cats were screened for eligibility for compassionate use of velagliflozin to treat cardiomyopathies and heart failure in cats. […] Due to non-compliance to treatment regime of one pet owner only one cat remained in the study over the complete planned time period of 90 days. Clinical symptoms (evaluated in a physical examination according to Good Veterinary Practice), echocardiographic parameters (always done by the same person at each visit and according to the ACVIM consensus statement guidelines for the classification, diagnosis, and management of cardiomyopathies in cats), blood parameters (evaluated by IDEXX Bioresearch Laboratories, Germany), number of events (re-occurrence of heart failure, cardiac related death or euthanasia) and time to event in days were documented at each visit on the respective Case Report Form.
Case 101 was a 10 years old, female spayed Maine Coon cat, diagnosed with hypertrophic cardiomyopathy (HCM) and previous congestive heart failure.
LA (Left atrium dimension measured as right parasternal short-axis); Ao (Aortic root diameter); LA/Ao, left atrium to aorta ratio; IVSd (interventricular septal end diastolic dimension, i.e. the thickness of the interventricular septum); LAD (Left atrium measured as right parasternal long-axis)

[3] = Plasma NEFA, cholesterol and BHB in cats before and after four week treatment (FIG. 1); assay type: in vivo, cat; conditions: end of four week treatment period (post) vs pre, versus control
Description: A significant treatment effect, an increase in blood lipids (NEFA, cholesterol) and plasma concentrations of BHB is noted.

[4] = compared to placebo on top of standard of care
[5] = cat 101, treatment period Day 1 until Day 90, 1 mg/kg orally once per day

## N#Cc1ccc([C@@H]2O[C@H](CO)[C@@H](O)[C@H](O)[C@H]2O)cc1Cc1ccc(C2CC2)cc1 [velagliflozin, Velagliflozin]
[1]; compared to placebo on top of SoC
  clinical parameters (e.g. appetite, activity level and breathing): improve significantly
[1]; [4]
  survival time: significant and clinically relevant prolongation
  time to event (cardiac death/euthanasia and (re-)occurrence of congestive heart failure): significant and clinically relevant prolongation
[2]; Visit 2 (D 45)
  NT-proBNP: 104 pmol/L
  BPM (mmHG): 136 mmHG
  Grade of murmur: 3
  Resting respiratory rate: 34
  Heart rate: 180
  Point of maximum intensity: left apical
  Presence of arrythmia: no
  Presence of gallop sound: no
  Timing of murmur: systolic
  Presence of murmur: yes
  LA/Ao (left atrium to aorta ratio): 1.36
  LAD max (mm) (Left atrium measured as right parasternal long-axis): 13.8 mm
[2]; Visit 3 (D 90)
  NT-proBNP: 39 pmol/L
  BPM (mmHG): 124 mmHG
  Grade of murmur: 2
  Resting respiratory rate: 34
  Heart rate: 176
  Point of maximum intensity: left apical
  Presence of arrythmia: no
  Presence of gallop sound: no
  Timing of murmur: systolic
  Presence of murmur: yes
  LA/Ao (left atrium to aorta ratio): 1.07
  LAD max (mm) (Left atrium measured as right parasternal long-axis): 12.6 mm
[2]; cat 101, D −7 to D 90
  echocardiographic parameters (Table 2), cardiac biomarker (Table 3) and abnormal heart murmur over the treatment period: improved continuously
[2]; cat 101, end of 90 day study
  general health at study termination: good general health
[2]; [5]
  adverse event: no adverse event
  re-occurrence of heart failure or pulmonary oedema: no heart failure or pulmonary oedema re-occurred
[3]
  plasma cholesterol: increase
  plasma concentrations of beta-hydroxybutyrat (BHB): increase
  plasma non-esterified fatty acids (NEFA): increase
